{"source": "patent US4897403A", "about": "“Antimalarial compositions and methods” (The United States of America as represented by the …, priority 1986, dated 1990)", "key": {"[1]": {"test_system": "chloroquine-sensitive West African clone (D-6)", "test": "In vitro susceptibility (radiolabelled hypoxanthine incorporation, semi-automated microdilution), Example 1, clone D-6", "type": "cell-based, P. falciparum", "conditions": "Plasmodium falciparum", "method": "(§1) Throughout the examples, incorporation of radiolabelled hypoxanthine was used to measure a synchronous growth of the malarial parasites and inhibition of incorporation was the measured parameter of the parasites' rsponse to the drugs. Semi-automated microdilution techniques as disclosed by R. E. Desjardins et al, Antimicrob.\n(§2) First, the antimalarial properties of verapamil (a calcium channel blocker \"reversing compound\") in vitro were studied. […] The drug combinations were dosed in fixed ratios of their 50% inhibitory concentrations."}, "[2]": {"test_system": "chloroquine-resistant clone from Indochina (W-2)", "test": "microbe, parasite or virus in culture", "conditions": "Plasmodium falciparum", "method": "as §1, §2\n(§3) The IC50 's of each drug in combination set forth in Table 1 were then calculated as a fraction of the control IC50 and plotted as a fraction of one unit of IC50 in FIG. 1. […] The line connecting each unit of IC50 for each clone represents the additivity of drug effects."}, "[3]": {"test_system": "chloroquine-resistant clone from Brazil (IEC 306)", "test": "microbe, parasite or virus in culture", "type": "cell-based, P. falciparum", "conditions": "Plasmodium falciparum", "method": "as §1, §2, §3"}, "[4]": {"test_system": "chloroquine-sensitive West African clone (D-6)", "test": "Effect of verapamil on chloroquine sensitivity, Example 2, clone D-6", "type": "cell-based, P. falciparum", "conditions": "Plasmodium falciparum, clone D-6, CQ sensitive, IC50 + 1SD", "excerpt": "as §1"}, "[5]": {"test_system": "chloroquine-resistant clone from Indochina (W-2)", "test": "microbe, parasite or virus in culture", "type": "cell-based, P. falciparum", "conditions": "for IC50: Plasmodium falciparum", "excerpt": "as §1"}, "[6]": {"test_system": "Isolates of P. falciparum from Thailand", "conditions": "cited from earlier work"}, "[7]": {"test_system": "malarial parasites", "test": "Antimalarial properties of verapamil in vitro", "type": "cell-based, P. falciparum", "method": "as §1, §2"}, "[8]": {"test_system": "malarial parasite growth or hypoxanthine uptake", "test": "Effect of verapamil alone on malarial parasite growth or hypoxanthine uptake in vitro", "type": "cell-based, P. falciparum", "conditions": "1×10^-6 M and 2×10^-6 M", "excerpt": "as §1"}}, "note": "Read-outs that look alike come from different tables or passages of the source.", "data": [{"smiles": "CCN(CC)CCCC(C)Nc1ccnc2cc(Cl)ccc12", "note": "(stereo not shown) [chloroquine]", "values": [{"measurement": "IC50", "setting": "[1]; read-out: IC50 of chloroquine in drug combination, CQ 25 nM/VER 75 μM fixed ratio, clone D-6", "result": 4.4, "unit": "nM"}, {"measurement": "IC50", "setting": "[1]; read-out: IC50 of chloroquine in drug combination, CQ 50 nM/VER 50 μM fixed ratio, clone D-6", "result": 8, "unit": "nM"}, {"measurement": "IC50", "setting": "[1]; read-out: IC50 of chloroquine in drug combination, CQ 75 nM/VER 25 μM fixed ratio, clone D-6", "result": 11.4, "unit": "nM"}, {"measurement": "IC50", "setting": "[1]; read-out: fifty percent inhibitory concentration (IC50), single drug chloroquine, chloroquine alone, clone D-6", "result": 14.1, "unit": "nM"}, {"measurement": "IC50", "setting": "[2]; read-out: IC50 of chloroquine in drug combination, CQ 25 nM/VER 75 μM fixed ratio, clone W-2", "result": 1.5, "unit": "nM"}, {"measurement": "IC50", "setting": "[2]; read-out: IC50 of chloroquine in drug combination, CQ 50 nM/VER 50 μM fixed ratio, clone W-2", "result": 1.3, "unit": "nM"}, {"measurement": "IC50", "setting": "[2]; read-out: IC50 of chloroquine in drug combination, CQ 75 nM/VER 25 μM fixed ratio, clone W-2", "result": 3.8, "unit": "nM"}, {"measurement": "IC50", "setting": "[3]; read-out: IC50 of chloroquine in drug combination, CQ 25 nM/VER 75 μM fixed ratio, clone IEC-306", "result": 2.8, "unit": "nM"}, {"measurement": "IC50", "setting": "[3]; read-out: IC50 of chloroquine in drug combination, CQ 50 nM/VER 50 μM fixed ratio, clone IEC-306", "result": 6.3, "unit": "nM"}, {"measurement": "IC50", "setting": "[3]; read-out: IC50 of chloroquine in drug combination, CQ 75 nM/VER 25 μM fixed ratio, clone IEC-306", "result": 11.7, "unit": "nM"}, {"measurement": "IC50", "setting": "[3]; read-out: fifty percent inhibitory concentration (IC50), single drug chloroquine, chloroquine alone, clone IEC-306", "result": 52.3, "unit": "nM"}, {"measurement": "IC50", "setting": "[4]; read-out: IC50 of chloroquine + 1 × 10^-6 M VER, with 1 × 10^-6 M verapamil", "result": "7.8 ± 0.6", "unit": "nM"}, {"measurement": "IC50", "setting": "[4]; read-out: IC50 of chloroquine + 2 × 10^-6 M VER, with 2 × 10^-6 M verapamil", "result": "8.8 ± 0.3", "unit": "nM"}, {"measurement": "IC50", "setting": "[5]; read-out: IC50 of chloroquine + 1 × 10^-6 M VER", "result": "8.4 ± 0.4", "unit": "nM"}, {"measurement": "IC50", "setting": "[5]; read-out: IC50 of chloroquine + 2 × 10^-6 M VER", "result": "5.6 ± 0.3", "unit": "nM"}, {"measurement": "sensitivity of chloroquine-resistant clone to chloroquine in presence of verapamil (FIGS. 2 and 3)", "setting": "[5]; constant concentration of verapamil, compared with chloroquine-sensitive West African clone", "result": "as sensitive to the chloroquine treatment as the chloroquine-sensitive West African clone"}, {"measurement": "resistance of isolates in vitro", "setting": "[6]", "result": "resistant"}]}, {"smiles": "OC(c1cc(C(F)(F)F)nc2c(C(F)(F)F)cccc12)C1CCCCN1", "note": "(stereo not shown) [mefloquine]", "values": [{"measurement": "resistance of isolates in vitro", "setting": "[6]", "result": "resistant"}]}, {"smiles": "C=C[C@H]1C[N@@]2CC[C@H]1C[C@H]2[C@H](O)c1ccnc2ccc(OC)cc12", "note": "[quinine]", "values": [{"measurement": "resistance of isolates in vitro", "setting": "[6]", "result": "resistant"}]}, {"smiles": "COc1ccc(CCN(C)CCCC(C#N)(c2ccc(OC)c(OC)c2)C(C)C)cc1OC", "note": "(stereo not shown) [verapamil]", "values": [{"measurement": "IC50", "setting": "[7]; Plasmodium falciparum, read-out: inhibitory concentration (IC50)", "result": "6 to 8", "unit": "µg/mL"}, {"measurement": "fold less potent than chloroquine or mefloquine", "setting": "[7]; verapamil vs chloroquine or mefloquine, in vitro", "result": "1,000 fold"}, {"measurement": "effect on malarial parasite growth or hypoxanthine uptake in vitro", "setting": "[8]", "result": "no significant effects"}]}]}
